# Data taken from US10552557B2, “Freshening compositions and devices comprising same” (The Procter & Gamble Company, priority 2014, dated 2020).
# Assay: Blocker Index (BI), expert graders, isovaleric acid malodorous swatch treated with test material
# Excerpt: Blocker materials suitable for use in consumer products of the present invention are chosen for their ability to decrease malodor, while not interfering with perception of a fragrance. Material selection is done by assigning two indices to a test sample material from two reference scales in order to rank odor strengths. The two reference scales are the Fragrance Fidelity Index (FFI) scale and the Blocker Index (BI) scale. The FFI ranks the ability of the test sample material to impart a perceivable odor which could cause interference when combined with another fragrance and the BI ranks the ability of the test sample material to reduce malodor perception. The two methods for assigning the indices to a test sample on the FFI and the BI reference scales are given below.
# The first step in the method for assigning a BI to a test sample material on the BI reference scale is to create the BI reference swatches. […] Fabric swatches for this test are white knit polycotton (4 inch×4 inch) swatches from EMC ordered as PC 50/50. The supplier is instructed to strip the swatches first, stripping involves washing twice with a fragrance-free detergent and rinsing three times.
# The BI scale contains one clean swatch with no malodor applied. […] These solutions are pipetted to the middle of the swatches. […] After drying for 30 minutes in a vented hood, the swatches are wrapped in aluminum foil to prevent odor contamination to the treated swatch. A clean untreated swatch is also included as the lowest anchor point of reference for malodor strength on the BI scale. The BI reference scale swatches should be used within 0.5 to 12 hours and discarded after 12 hours. The swatches are used as scale anchor points when graders evaluate a test sample(s) and are assigned a Blocker Index (BI) as show in Table 12.
# The perfumer/expert grader is asked to rank order swatches according to a scale between 0 and 3.
# The reference swatches represent the 0, 1, 2, and 3 BIs on the BI reference scale, Table 12. The expert grader should familiarizes him/herself with the strength of the odor on the BI reference swatches by sniffing each one starting at 0 (the lowest odor strength) and ending at 3 (the highest odor strength). This should be done prior to evaluating the swatch treated with the test material.
# To evaluate the BI, the test material is applied to a malodorous swatch to determine how well the test material blocks the malodor. […] After drying the malodorous swatch a known concentration of test material solution, between 1 ppm and 100 ppm is pipetted onto the malodorous swatch. […] It is sometimes necessary to evaluate several levels of the test material between about 1 and about 100 ppm to determine the BI.
# At least two perfumers/expert graders are used to assign the BI to the test sample. […] The test sample swatch is assigned a BI at or between numbers on the BI in table.
# [1] = Conc 10 ppm test material on isovaleric acid malodorous swatch
# [2] = Conc 50 ppm test material on isovaleric acid malodorous swatch
Compound,BI [1],BI [2],"BI of reference swatch, Ave (2 μL 0.08% solution, all graders (Table 10))"
CC1(C)CCc2ccc(CCC=O)cc21,1.5,2.7,
CC1CCC2(C(C)C)CC(C)OC2C1 (stereo not shown),2.0,2.2,
"CCC(=O)OC1CC2C3C=CCC3C1C2(C)C (stereo not shown) [8,8-dimethyl-3a,4,5,6,7,7a-hexahydro-1H-4,7-methanoinden-6-yl propionate]",1.5,2.2,
"CC(C)CC(=O)O [isovaleric acid, reference compound]",,,1.0
